According to US8338624B2, “Isoflavone derivatives and uses thereof” (Yeda Research and Development Co., Ltd., priority 2007, dated 2012):
Residues, ends and D or L forms follow the SMILES beside them. *: point of attachment. Cbz = O=C(OCc1ccccc1)*; CH2F = FC*

Key:
[1] = system: human prostate C4-2B cancer cells; assay: DNA synthesis by [3H]-thymidine incorporation, C4-2B cells; type: cell-based
Experimental: (§1) Cells were cultured in MEM supplemented with 10% FCS and antibiotics. Cells were grown to subconfluence and then treated with various hormones or agents as described by Somjen et al. (Somjen et al., 1998). The cells were characterized in terms of expression of mRNAs for estrogen […] by real time PCR, and the results are summarized in Table 1. N87, 320DM and H295R cells expressed mRNAs for both ERs. The ratio of ERα to ERβ was 1:8.5, 1:30 and 1:1.8 in N87, 320DM and H295R cells, respectively. Ovarian A2780 and prostate C4-24 cells expressed mainly mRNA for ERβ, and the ratio of ERβ to ERα was 300:1 and 70:1, respectively. MLS ovarian cells expressed mRNA only for ERβ. The ratio of ERα to ERβ in T47D cells has been reported to be 9:1.
(§2) [^3H]-Thymidine incorporation into DNA was used for the assessment of the various effects (proliferative or inhibitory) of various isoflavones, isoflavone derivatives and known cytotoxic drugs in the above-mentioned cells. Cells were grown until subconfluence using conditions described in Somjen et al. (Somjen et al., 1998) and then treated with various agents for 24 or 48 h as indicated. At the end of incubation, [^3H]-thymidine was added for two hours. Cells were then treated with 10% ice-cold trichloroacetic (TCA) for 5 min and washed twice with 5% TCA and then with cold ethanol. The cellular layer was dissolved in 0.3 ml of 0.3 M NaOH, aliquots were taken for counting radioactivity, and [^3H]-thymidine incorporation into DNA was calculated.

[2] = system: N87 gastric carcinoma cells; assay: DNA synthesis by [3H]-thymidine incorporation, N87 cells; type: cell-based, human
Experimental: as §1, §2

[3] = system: T47D mammary cancer cells; assay: DNA synthesis by [3H]-thymidine incorporation, T47D cells; type: cell-based, human; conditions: at 10 μM
Experimental: as §1, §2

[4] = system: H295R adrenocarcinoma cells; assay: DNA synthesis by [3H]-thymidine incorporation, H295R cells; type: cell-based, human; design: stimulation of DNA synthesis: concentration or dose not given beside the values; conditions: for inhibition at 3 µM: Homo sapiens, NCI-H295R, read-out: inhibition of DNA synthesis / growth
Experimental: as §1, §2

[5] = system: 320DM human colon cancer cells; assay: DNA synthesis by [3H]-thymidine incorporation, 320DM cells; type: cell-based; conditions: for effect on DNA synthesis / growth: 30 to 3000 nM
Experimental: as §1
as §2, with “(Somjen et al., 1998) and then treated with various agents for 24 or 48 h as indicated.” left out

[6] = system: Human umbilical vascular smooth muscle cells (VSMC); assay: DNA synthesis by [3H]-thymidine incorporation, normal VSMC; type: cell-based; conditions: for effect on DNA synthesis: at 300 nM
Experimental: Human umbilical vascular smooth muscle cells (VSMC) sensitive to estrogen, were grown in culture as described above, and used only at passages 1-3, when expression of smooth muscle actin was clearly demonstrable (Somjen et al. 2000). The ratio of the expression of mRNA for ERα to ERβ was 2.7:1.
as §2

[7] = system: A2780 ovarian cancer cells; assay: DNA synthesis by [3H]-thymidine incorporation, A2780 cells; type: cell-based, human; conditions: for inhibition at 25 µM: read-out: inhibition of cell proliferation
Experimental: as §1, §2

ERβ compared to ERα = conditions: transfected cells; cited from earlier work
MLS ovarian cancer cells = assay: DNA synthesis by [3H]-thymidine incorporation, MLS cells; type: cell-based, human
Experimental: as §1, §2

MLS ovarian xenografts = MLS ovarian xenografts in nude mice; type: in vivo; conditions: daunomycin iv 200 μg/mouse every other day
From the text: Female CD1 nude mice (8-week old, ˜30 g) were housed and handled with free access to food and water in the animal facility according to the guidelines (1996) of the Institutional Animal Care and Use Committee of the Weizmann Institute of Science, Rehovot, Israel.
Thirty female nude mice (8 weeks old) were inoculated sub-cutaneously (sc) with MLS ovarian carcinoma cells (1.5×10^6/mouse). Ten days later, when the tumors were palpable, the mice were randomly divided into 3 groups (8-10 mice/group). The mice in each group were iv injected every other day either with a vehicle (Neowater, a solubilization enhancer, 0.1 ml), daunomycin dissolved in Neowater (200 μg/mouse in 0.1 ml vehicle, total dose during treatment 1 mg/mouse), or compound 9 dissolved in Neowater (400 μg/mouse in 0.1 ml vehicle, total dose during treatment 2 mg/mouse). During treatment, body weight was recorded to monitor toxicity of the treatment, and the tumors were measured with an external caliper. Tumor volume was calculated using the formula length×width×height×π/6. Statistical significance was assessed using student's t test, and differences were considered significant at p<0.05.

[8] = ICI 182780 (1.1 μM) + E2 0.3 μM
[9] = estradiol 30 nM + 1.1 μM ICI 182780
[10] = apoptosis inhibitor at 25 μM alone

COc1ccc(-c2coc3cc(O)cc(O)c3c2=O)cc1 [Compound 1, Biochanin A, reference compound]
effect on DNA synthesis ([1]; at 3 μM): stimulated DNA synthesis significantly | effect on DNA synthesis ([2]; at 3 μM): had no effect | effect on DNA synthesis [3]: stimulated DNA synthesis | effect on DNA synthesis ([4]; at 3 μM): had no effect on DNA synthesis | effect on DNA synthesis / growth [5]: had no effect on growth | effect on DNA synthesis [6]: stimulated DNA synthesis

O=c1c(-c2ccc(O)cc2)coc2cc(O)cc(O)c12 [Compound 2, Genistein, reference compound]
effect on DNA synthesis ([1]; at 3 μM): stimulated DNA synthesis significantly | inhibition at 25 µM ([7]; Homo sapiens): 30 to 40% | sensitivity for activating transcription via ERβ compared to ERα (ERβ compared to ERα): 100 fold | effect on [3H]-thymidine incorporation into DNA ([5]; 30 to 300 nM): significantly stimulated [^3H]-thymidine incorporation into DNA

O=c1c(-c2ccc(O)cc2)coc2cc(O)ccc12 [Compound 3, Daidzein, reference compound]
effect on DNA synthesis ([1]; at 3 μM): stimulated DNA synthesis significantly | effect on DNA synthesis [3]: stimulated DNA synthesis | inhibition at 25 µM ([7]; Homo sapiens): 30 to 40% | sensitivity for activating transcription via ERβ compared to ERα (ERβ compared to ERα): 100 fold | effect on DNA synthesis [6]: stimulated DNA synthesis

COc1ccc(-c2c(CCCC(=O)O)oc3cc(O)cc(O)c3c2=O)cc1 [Compound 4, 2-(3-carboxypropyl)-7,5-dihydroxy-4′-methoxyisoflavone]
effect on DNA synthesis ([1]; at 300 nM): stimulated DNA synthesis | stimulation of DNA synthesis ([2]; at 300 nM): 50% | effect on DNA synthesis [3]: had no effect | stimulation of DNA synthesis ([4]; concentration not given): 273% | effect on DNA synthesis / growth [5]: stimulated the DNA synthesis | effect on DNA synthesis [6]: stimulated DNA synthesis

O=C(O)CCCc1oc2cc(O)cc(O)c2c(=O)c1-c1ccc(O)cc1 [Compound 5, 2-(3-Carboxypropyl)-5,7,4′-trihydroxyisoflavone]
effect on DNA synthesis ([1]; at 300 nM): stimulated DNA synthesis | effect on DNA synthesis / growth [5]: significantly stimulated [^3H]-thymidine incorporation into DNA

O=C(O)COc1ccc2c(=O)c(-c3ccc(O)cc3)coc2c1 [Compound 6, 7-(O)-Carboxymethyl daidzein, reference compound]
effect on DNA synthesis ([1]; at 300 nM): stimulated DNA synthesis | effect on DNA synthesis [3]: stimulated DNA synthesis | effect on DNA synthesis [6]: stimulated DNA synthesis

COc1ccc(-c2c(CCCC(=O)NCCCCCCNC(=O)OC(C)(C)C)oc3cc(O)cc(O)c3c2=O)cc1 [Compound 7, 2-[3-carboxy-(6-tert-butoxycarbonylamino)-hexylamino-propyl]-7,5-dihydroxy-4′-methoxyisoflavone]
inhibition at 0.03 µM ([1]; Homo sapiens, at 30 nM): 10% | inhibition at 0.3 µM ([1]; Homo sapiens, at 300 nM): 50% | DNA synthesis, ratio experimental/control (E/C) ([1]; compound at 0.3 μM): 0.41 ± 0.27 | inhibition at 0.3 µM ([2]; Homo sapiens, at 300 nM, read-out: inhibition of cell growth): 40% | DNA synthesis, ratio experimental/control (E/C) (MLS ovarian cancer cells; compound at 3 μM): 0.05 ± 0.23 | inhibition at 3 µM ([7]; Homo sapiens, at 3 μM, read-out: inhibition of DNA synthesis / growth): 35% | DNA synthesis, ratio experimental/control (E/C) ([7]; compound at 3 μM): 0.64 ± 0.16 | inhibition at 3 µM ([4]; at 3 μM): 40 to 45% | DNA synthesis, ratio experimental/control (E/C) ([4]; compound at 3 μM): 0.55 ± 0.03 | effect on DNA synthesis / growth [5]: inhibited significantly DNA synthesis | DNA synthesis, ratio experimental/control (E/C) ([5]; compound at 3 μM): 0.22 ± 0.15 | inhibition at 3.3 µM ([6]; Homo sapiens, at 3.3 μM): 26% | DNA synthesis, ratio experimental/control (E/C) ([6]; compound at 3 μM): 0.74 ± 0.05

C[C@]12CC[C@@H]3c4ccc(O)cc4CC[C@H]3[C@@H]1CC[C@@H]2O [Compound E2, estradiol 17β, reference compound]
DNA synthesis, ratio experimental/control (E/C) ([1]; E2 at 30 nM): 2.10 ± 0.10 | DNA synthesis, ratio experimental/control (E/C) (MLS ovarian cancer cells; E2 30 nM alone (Table 3)): 2.35 ± 0.06 | DNA synthesis, ratio experimental/control (E/C) (MLS ovarian cancer cells; E2 0.3 μM alone): 1.70 ± 0.15 | DNA synthesis, ratio experimental/control (E/C) (MLS ovarian cancer cells; E2 at 30 nM (Table 2)): 1.39 ± 0.03 | activity at 0.03 µM (MLS ovarian cancer cells; Homo sapiens, estradiol 30 nM, read-out: DNA synthesis (% of control)): 235% | activity at 0.3 µM (MLS ovarian cancer cells; Homo sapiens, estradiol 0.3 μM, read-out: DNA synthesis (% of control)): 187% | DNA synthesis, ratio experimental/control (E/C) ([7]; E2 at 30 nM): 1.42 ± 0.10 | DNA synthesis, ratio experimental/control (E/C) ([4]; E2 at 30 nM): 2.10 + .10 | DNA synthesis, ratio experimental/control (E/C) ([5]; E2 30 nM alone (Table 3)): 2.06 ± 0.09 | DNA synthesis, ratio experimental/control (E/C) ([5]; E2 0.3 μM alone): 1.87 ± 0.18 | DNA synthesis, ratio experimental/control (E/C) ([5]; E2 at 30 nM (Table 2)): 1.64 ± 0.13 | activity at 0.03 µM ([5]; Homo sapiens, estradiol 30 nM, read-out: [3H]-thymidine incorporation (% of control)): 206% | DNA synthesis, ratio experimental/control (E/C) ([6]; E2 at 30 nM): 0.55 ± 0.12

C[C@]12CC[C@@H]3c4ccc(O)cc4C[C@@H](CCCCCCCCC[S+]([O-])CCCC(F)(F)C(F)(F)F)[C@H]3[C@@H]1CC[C@@H]2O (stereo partly shown) [ICI 182780, reference compound]
DNA synthesis, ratio experimental/control (E/C) (MLS ovarian cancer cells; ICI 182780 1.1 μM alone): 0.52 ± 0.12 | DNA synthesis, ratio experimental/control (E/C) (MLS ovarian cancer cells; ICI 182780 (1.1 μM) + E2 30 nM): 0.53 ± 0.11 | DNA synthesis, ratio experimental/control (E/C) (MLS ovarian cancer cells; [8]): 0.95 ± 0.08 | DNA synthesis (% of control) (MLS ovarian cancer cells; [9]): 53% | DNA synthesis (% of control) (MLS ovarian cancer cells; estradiol 0.3 μM + 1.1 μM ICI 182780): 95% | DNA synthesis, ratio experimental/control (E/C) ([5]; ICI 182780 1.1 μM alone): 0.63 ± 0.08 | DNA synthesis, ratio experimental/control (E/C) ([5]; ICI 182780 (1.1 μM) + E2 30 nM): 0.63 ± 0.08 | DNA synthesis, ratio experimental/control (E/C) [5, 8]: 0.92 ± 0.18 | DNA synthesis (% of control) [5, 9]: 63% | DNA synthesis (% of control) ([5]; estradiol 300 nM + 1.1 μM ICI 182780): 92%

COC(=O)C[C@H](NC(=O)[C@H](C)NC(=O)[C@@H](NC(=O)OCc1ccccc1)C(C)C)C(=O)CF [Z-VADFK, Z-VAD-FMK Me ester, reference compound] (Cbz-Val-Ala-Asp(OMe)-CH2F)
DNA synthesis, ratio experimental/control (E/C) (MLS ovarian cancer cells; Z-VADFK 25 μM alone): 1.06 ± 0.1 | effect on DNA synthesis (MLS ovarian cancer cells; [10]): had no effect on DNA synthesis | DNA synthesis, ratio experimental/control (E/C) ([5]; Z-VADFK 25 μM alone): 1.11 ± 0.08 | effect on DNA synthesis [5, 10]: had no effect on DNA synthesis

N.N.O=C([O-])C1(C(=O)[O-])CCC1.[Pt+2] [carboplatin, reference compound]
inhibition of DNA synthesis / growth ([7]; at 3 μM): 57%

COc1cccc2c1C(=O)c1c(O)c3c(c(O)c1C2=O)C[C@@](O)(C(C)=O)C[C@@H]3O[C@H]1C[C@H](N)[C@H](O)[C@H](C)O1 [daunomycin, reference compound]
inhibition at 3 µM ([4]; at 3 μM): 75% | reduction in mean body weight (MLS ovarian xenografts): 15% | deaths caused (MLS ovarian xenografts; 8-10 mice/group): 2 mice
